In ChEMBL document CHEMBL1201862, “PubChem BioAssay data set” (2004):
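In this assay, cells in 96-well plates receive the compound at five concentrations for 48 hours. Endpoints are linearly interpolated between the surrounding concentrations. Abbreviation: GI50, concentration required for 50% inhibition of growth.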 The source made the active and inactive calls. No stated cut-off is given here; in the data, active = GI50 up to about 1.1 µM and inactive = higher. Where a SMILES comes first, the peptide text is derived from it. [ ]: non-standard residue; d: D form. Aoe = N[C@@H](CCCCCC(=O)[C@@H]1CO1)C(=O)O

What was measured:
Experiment in all cases: DTP human tumour cell line panel, 48 h
[1] = system: IGROV-1
[2] = system: SNB-19
[3] = system: HT-29
[4] = system: SF-295
[5] = system: OVCAR-3
[6] = system: T47D
[7] = system: Hs-578T
[8] = system: UACC-62
[9] = system: MCF7
[10] = system: SK-MEL-28
[11] = system: MDA-MB-435
[12] = system: OVCAR-4
[13] = system: MDA-N
[14] = system: OVCAR-5
[15] = system: SK-MEL-2
[16] = system: HOP-62
[17] = system: SW-620
[18] = system: MDA-MB-231
[19] = system: Malme-3M
[20] = system: HOP-92

SMILES	GI50 [1]	GI50 [2]	GI50 [3]	GI50 [4]	GI50 [5]	GI50 [6]	GI50 [7]	GI50 [8]	GI50 [9]	GI50 [10]	GI50 [11]	GI50 [12]	GI50 [13]	GI50 [14]	GI50 [15]	GI50 [16]	GI50 [17]	GI50 [18]	GI50 [19]	GI50 [20]
c1ccc(CNCCCCNCCCNCc2ccccc2)cc1	13.1 µM (inactive)	16.4 µM (inactive)	15.2 µM (inactive)	> 100 µM (inactive)	20 µM (inactive)	> 100 µM (inactive)	14 µM (inactive)	16.6 µM (inactive)	> 100 µM (inactive)	16 µM (inactive)	16.4 µM (inactive)	17.8 µM (inactive)	12.9 µM (inactive)	30.2 µM (inactive)	31.6 µM (inactive)	22.2 µM (inactive)	15.8 µM (inactive)	15.2 µM (inactive)	15.5 µM (inactive)	11.8 µM (inactive)
CN(C)CCN(c1ccccn1)c1ccccn1	> 100 µM (inactive)	> 100 µM (inactive)	> 100 µM (inactive)	> 100 µM (inactive)	> 100 µM (inactive)	> 100 µM (inactive)	> 100 µM (inactive)	> 100 µM (inactive)	> 100 µM (inactive)	> 100 µM (inactive)	> 100 µM (inactive)	> 100 µM (inactive)	> 100 µM (inactive)	> 100 µM (inactive)	> 100 µM (inactive)	> 100 µM (inactive)	> 100 µM (inactive)	> 100 µM (inactive)	> 100 µM (inactive)	> 100 µM (inactive)
O=C1/C(=N/CCc2cc(Br)c(O)c(Br)c2)C=C(O)c2cccnc21	2.07 µM (inactive)	2.3 µM (inactive)	2.6 µM (inactive)	1.2 µM (inactive)	1.59 µM (inactive)	7.78 µM (inactive)	1.49 µM (inactive)	1.51 µM (inactive)	1.61 µM (inactive)	1.78 µM (inactive)	0.344 µM (active)	2.72 µM (inactive)	0.4 µM (active)	2.03 µM (inactive)	1.52 µM (inactive)	1.11 µM (active)	2.17 µM (inactive)	7.35 µM (inactive)	1.21 µM (inactive)	7.94 µM (inactive)
O=C1N[C@@H](Cc2ccccc2)C(=O)N2CCC[C@@H]2C(=O)N[C@@H](CCCCCC(=O)[C@@H]2CO2)C(=O)N[C@H]1Cc1ccccc1 [TRAPOXIN B] (cyclo(FF[dP][Aoe]))	0.019 µM (active)	0.103 µM (active)	< 0.000212 µM (active)	0.0145 µM (active)	0.00122 µM (active)	0.0034 µM (active)	0.000685 µM (active)	0.000435 µM (active)	0.000553 µM (active)	0.000713 µM (active)	0.000546 µM (active)	0.221 µM (active)	0.000512 µM (active)	0.00197 µM (active)	0.00116 µM (active)	< 0.000212 µM (active)	0.000305 µM (active)	0.161 µM (active)	< 0.000212 µM (active)	0.00574 µM (active)
O=C(O)c1ccccc1/C=C1/Nc2ccccc2C1=O	24.2 µM (inactive)	> 100 µM (inactive)	67.9 µM (inactive)	> 100 µM (inactive)	> 100 µM (inactive)	51.8 µM (inactive)	62.5 µM (inactive)	> 100 µM (inactive)	48.8 µM (inactive)	> 100 µM (inactive)	> 100 µM (inactive)	63.4 µM (inactive)	> 100 µM (inactive)	> 100 µM (inactive)	> 100 µM (inactive)	> 100 µM (inactive)	57.5 µM (inactive)	> 100 µM (inactive)	> 100 µM (inactive)	> 100 µM (inactive)
CC1(c2ccc(Cl)s2)CC(c2ccc(Cl)s2)=C(C#N)C(=C(C#N)C#N)N1 (stereo not given)	19.9 µM (inactive)	20.8 µM (inactive)	19.2 µM (inactive)	15 µM (inactive)	15 µM (inactive)	18.8 µM (inactive)	29.5 µM (inactive)	15.8 µM (inactive)	17.6 µM (inactive)	19.4 µM (inactive)	18.4 µM (inactive)	16.5 µM (inactive)	22.4 µM (inactive)	19.4 µM (inactive)	18.6 µM (inactive)	18.8 µM (inactive)	13.9 µM (inactive)	23.2 µM (inactive)	22.8 µM (inactive)	15.4 µM (inactive)
